Where a name gives a salt, the structure may show the parent alone. Non-standard residues stand in square brackets, D forms with d. Residues, ends and D or L forms follow the SMILES beside them. *: point of attachment. Arg(NO2) = N=C(NCCC[C@H](N)C(=O)O)N[N+](=O)[O-]; X1 = CCCCO*
Tests used:
[1] = test system: young Sprague Dawley rats; assay: Anti-obese activity, transdermal, young female Sprague Dawley rats (second experiment); format: in vivo, rat; conditions: for effect on overweight of young rats (in words): 10, 1 or 0.3 mg/kg transdermal twice per day for 30 days; for Food intake (per day & per rat) / Weight (g) (Day 30) / Weight (g) (Day 1): young rats; for Weight (g) (Day 1): baseline
Method: In a second experiment, 40 young female Sprague Dawley (SD) rats (180-225 g) were divided into 4 groups. In group A, 0.2 ml of water was administered to the back of rat (n=10) twice per day for 30 days. In Groups B, C, and D, 10 mg/kg, 1 mg/kg, or 0.3 mg/kg of H-Val-Pro-Gly-Pro-Arg(NO2)—OCH(CH3)2.HCl(SEQ ID NO: 197) in 0.2 ml of water were administered transdermally to the backs of rats (n=10) twice per day for 30 days respectively.
In a second experiment, 40 young female Sprague Dawley (SD) rats (180-230 g) were divided into 4 groups. In group A, 0.2 ml of water was administered to the back of rat (n=10) twice per day for 30 days. In Groups B, C, and D, 10 mg/kg, 1 mg/kg, or 0.3 mg/kg of H-Val-Pro-Gly-Pro-Arg(diAc)-OCH2CH2CH2CH3.HCl(SEQ ID NO: 198) in 0.2 ml of water were administered transdermally to the backs of rats (n=10) twice per day for 30 days.
In a second experiment, 40 young female Sprague Dawley (SD) rats (182-223 g) were divided into 4 groups. In group A, 0.2 ml of water was administered to the back of rat (n=10) twice per day for 30 days. In Groups B, C, and D, 10 mg/kg, 1 mg/kg, or 0.3 mg/kg of H-Ala-Pro-Gly-Pro-Arg(NO2)—OCH2CH2CH2CH3.HCl(SEQ ID NO: 199) in 0.2 ml of water was administered transdermally to the backs of rats (n=10) twice per day for 30 days respectively.
In a second experiment, 40 young female Sprague Dawley (SD) rats (185-220 g) were divided into 4 groups. In group A, 0.2 ml of water was administered to the back of rat (n=10) twice per day for 30 days. In Groups B, C, and D, 10 mg/kg, 1 mg/kg, or 0.3 mg/kg of H-Val-Pro-Asp(OEt)-Pro-Arg(NO2)-OCH2CH2CH2CH3.HCl(SEQ ID NO: 200) in 0.2 ml of water were administered transdermally to the backs of rats (n=10) twice per day for 30 days.

[2] = test system: Sprague Dawley rats; assay: Anti-obese activity, transdermal, female Sprague Dawley rats 15 weeks old (first experiment); format: in vivo, rat; conditions: for Weight (g) (Day 1): baseline; for effect on body weights of rats (in words): 10, 1 or 0.3 mg/kg transdermal twice per day for 30 days; for effect on food intakes and body weights (in words): administrated transdermally, as low as 0.3 mg/kg in rat, SD rats and DB/DB mice
Method: In a first experiment, 40 female Sprague Dawley rats (15 weeks old, 318-346 g) were divided into 4 groups. In group A, 0.2 ml of water was administered to the back of rat (n=10) twice per day for 30 days. In Groups B, C, and D, 10 mg/kg, 1 mg/kg, or 0.3 mg/kg of H-Val-Pro-Gly-Pro-Arg(NO2)—OCH(CH3)2.HCl(SEQ ID NO: 197) in 0.2 ml of water was administered transdermally to the back of rat (n=10) twice per day for 30 days respectively.
In a first experiment, 40 female Sprague Dawley (SD) rats (15 weeks old, 315-340 g) were divided into 4 groups. In group A, 0.2 ml of water was administered to the back of rat (n=10) twice per day for 30 days. In Groups B, C, and D, 10 mg/kg, 1 mg/kg, or 0.3 mg/kg of H-Val-Pro-Gly-Pro-Arg(diAc)-OCH2CH2CH2CH3.HCl(SEQ ID NO: 198) in 0.2 ml of water was administered transdermally to the back of rat (n=10) twice per day for 30 days respectively.
In a first experiment, 40 female Sprague Dawley (SD) rats (15 weeks old, 320-345 g) were divided into 4 groups. In group A, 0.2 ml of water was administered to the back of rat (n=10) twice per day for 30 days. In Groups B, C, and D, 10 mg/kg, 1 mg/kg, or 0.3 mg/kg of H-Ala-Pro-Gly-Pro-Arg(NO2)—OCH2CH2CH2CH3.HCl(SEQ ID NO: 199) in 0.2 ml of water was administered transdermally to the back of rat (n=10) twice per day for 30 days respectively.
In a first experiment, 40 female Sprague Dawley (SD) rats (15 weeks old, 320-350 g) were divided into 4 groups. In group A, 0.2 ml of water was administered to the back of rat (n=10) twice per day for 30 days. In Groups B, C, and D, 10 mg/kg, 1 mg/kg, or 0.3 mg/kg of H-Val-Pro-Asp(OEt)-Pro-Arg(NO2)—OCH2CH2CH2CH3.HCl(SEQ ID NO: 200) in 0.2 ml of water was administered transdermally to the back of rat (n=10) twice per day for 30 days respectively.

[3] = 0.3 mg/kg transdermal twice per day for 30 days
[4] = 0.3 mg/kg transdermal twice per day
[5] = 1 mg/kg transdermal twice per day for 30 days
[6] = 1 mg/kg transdermal twice per day
[7] = 10 mg/kg transdermal twice per day for 30 days
[8] = 10 mg/kg transdermal twice per day

Compound | effect on overweight of young rats (in words) [1] | Food intake (per day & per rat) [1, 3] | Weight (g) (Day 30) [1, 3] | Weight (g) (Day 1) [1, 4] | Food intake (per day & per rat) [1, 5] | Weight (g) (Day 30) [1, 5] | Weight (g) (Day 1) [1, 6] | Food intake (per day & per rat) [1, 7] | Weight (g) (Day 30) [1, 7] | Weight (g) (Day 1) [1, 8] | Food intake (per day & per rat) [2, 3] | Weight (g) (Day 30) [2, 3] | Weight (g) (Day 1) [2, 4] | Food intake (per day & per rat) [2, 5] | Weight (g) (Day 30) [2, 5] | Weight (g) (Day 1) [2, 6] | Food intake (per day & per rat) [2, 7] | Weight (g) (Day 30) [2, 7] | Weight (g) (Day 1) [2, 8] | effect on body weights of rats (in words) [2] | other results
CCCCOC(=O)[C@H](CCCNC(=N)N[N+](=O)[O-])NC(=O)[C@@H]1CCCN1C(=O)CNC(=O)[C@@H]1CCCN1C(=O)[C@H](C)N [H-Ala-Pro-Gly-Pro-Arg(NO2)—OCH2CH2CH2CH3.HCl] (HELM PEPTIDE1{A.P.G.P.[N=C(NCCC[C@H](N[*:1])C(=O)[*:2])N[N+](=O)[O-]].[CCCCO[*:1]]}$$$$V2.0) | controlled overweight of rats effectively | 21.3 ± 2.2 | 326.2 ± 4.8 | 194.1 ± 4.5 | 20.3 ± 2.7 | 321.7 ± 4.0 | 192.6 ± 4.1 | 19.5 ± 2.3 | 305.4 ± 4.7 | 193.7 ± 4.2 | 22.7 ± 1.8 | 335.1 ± 4.8 | 335.1 ± 6.2 | 21.8 ± 2.3 | 323.7 ± 4.4 | 333.6 ± 7.8 | 20.8 ± 2.4 | 315.4 ± 3.8 | 332.2 ± 7.4 | reduced body weights of rats effectively | effect on food intakes and body weights (in words) [2]: reduced food intakes and body weights
CCCCOC(=O)[C@H](CCCNC(=N)N[N+](=O)[O-])NC(=O)[C@@H]1CCCN1C(=O)[C@H](CC(=O)OCC)NC(=O)[C@@H]1CCCN1C(=O)[C@@H](N)C(C)C [H-Val-Pro-Asp(OEt)-Pro-Arg(NO2)—OCH2CH2CH2CH3.HCl] (H-VPD(OEt)P[Arg(NO2)]-X1) | controlled overweight of rats effectively | 22.7 ± 2.9 | 336.6 ± 5.8 | 192.1 ± 4.6 | 21.3 ± 2.1 | 325.4 ± 4.9 | 193.2 ± 4.7 | 20.4 ± 2.7 | 315.4 ± 6.7 | 191.2 ± 5.2 | 22.7 ± 2.5 | 333.1 ± 3.9 | 333.5 ± 7.1 | 21.9 ± 2.7 | 326.8 ± 2.8 | 329.8 ± 7.8 | 20.1 ± 3.2 | 318.1 ± 3.9 | 330.5 ± 8.2 | reduced body weights of rats effectively | effect on food intakes and body weights (in words) [2]: reduced food intake and body weights
CC(C)OC(=O)[C@H](CCCNC(=N)N[N+](=O)[O-])NC(=O)[C@@H]1CCCN1C(=O)CNC(=O)[C@@H]1CCCN1C(=O)[C@@H](N)C(C)C [H-Val-Pro-Gly-Pro-Arg(NO2)-OCH(CH3)2•HCl, H-Val-Pro-Gly-Pro-Arg(NO2)—OCH(CH3)2.HCl] (HELM PEPTIDE1{V.P.G.P.[N=C(NCCC[C@H](N[*:1])C(=O)[*:2])N[N+](=O)[O-]].[CC(C)O[*:1]]}$$$$V2.0) | controlled overweight of young rats effectively | 21.8 ± 2.7 | 327.2 ± 3.8 | 195.1 ± 5.5 | 20.1 ± 2.8 | 323.1 ± 4.5 | 191.6 ± 4.7 | 19.8 ± 3.3 | 307.4 ± 5.7 | 192.7 ± 6.2 | 22.1 ± 2.5 | 322.1 ± 4.3 | 335.4 ± 5.2 | 21.1 ± 2.7 | 313.7 ± 5.1 | 333.1 ± 5.1 | 19.9 ± 2.9 | 308.4 ± 4.5 | 331.7 ± 6.2 | reduced body weights of rats effectively | effect on food intakes and body weights (in words) [2]: reduced food intakes and body weights
H-Val-Pro-Gly-Pro-Arg(diAc)-OCH2CH2CH2CH3.HCl | controlled overweight of young rats effectively | 23.7 ± 2.9 | 346.2 ± 4.8 | 191.1 ± 4.8 | 22.1 ± 2.8 | 334.1 ± 4.9 | 190.6 ± 5.7 | 20.8 ± 2.8 | 317.4 ± 6.4 | 191.7 ± 4.6 | 23.0 ± 1.7 | 347.1 ± 5.7 | 333.1 ± 6.1 | 21.9 ± 1.9 | 336.7 ± 5.6 | 331.6 ± 6.6 | 20.9 ± 2.2 | 329.2 ± 4.8 | 334.1 ± 7.5 | reduced body weights of rats effectively | effect on food intakes and body weights (in words) [2]: reduced food intakes and body weights
